Test results published in article PMC12865225 (Clinical and Translational Science, 2026).

Assays:
OATP1B3 = target: T1, OATP1B3 (Homo sapiens, UniProt Q9NPD5); experiment: Uptake transport assay in OATP1B3-expressing HEK293 cells; assay type: cell-based; conditions: for transport by OATP1B3: 2 and 50 μM, 10 min; for Km at 2 min: human, HEK293 cells transiently expressing OATP1B3, pH 7.4, uptake; for Km / Vmax (pmol/106 cells/min) OATP1B3: uptake; for Km at 2 min / Km / Vmax (pmol/106 cells/min) OATP1B3: 2 min
T1 construct: expressed in transfected cells; host or cells: HEK293 (recombinant baculovirus-mediated transduction)
T1 sequence (Q9NPD5 1-702): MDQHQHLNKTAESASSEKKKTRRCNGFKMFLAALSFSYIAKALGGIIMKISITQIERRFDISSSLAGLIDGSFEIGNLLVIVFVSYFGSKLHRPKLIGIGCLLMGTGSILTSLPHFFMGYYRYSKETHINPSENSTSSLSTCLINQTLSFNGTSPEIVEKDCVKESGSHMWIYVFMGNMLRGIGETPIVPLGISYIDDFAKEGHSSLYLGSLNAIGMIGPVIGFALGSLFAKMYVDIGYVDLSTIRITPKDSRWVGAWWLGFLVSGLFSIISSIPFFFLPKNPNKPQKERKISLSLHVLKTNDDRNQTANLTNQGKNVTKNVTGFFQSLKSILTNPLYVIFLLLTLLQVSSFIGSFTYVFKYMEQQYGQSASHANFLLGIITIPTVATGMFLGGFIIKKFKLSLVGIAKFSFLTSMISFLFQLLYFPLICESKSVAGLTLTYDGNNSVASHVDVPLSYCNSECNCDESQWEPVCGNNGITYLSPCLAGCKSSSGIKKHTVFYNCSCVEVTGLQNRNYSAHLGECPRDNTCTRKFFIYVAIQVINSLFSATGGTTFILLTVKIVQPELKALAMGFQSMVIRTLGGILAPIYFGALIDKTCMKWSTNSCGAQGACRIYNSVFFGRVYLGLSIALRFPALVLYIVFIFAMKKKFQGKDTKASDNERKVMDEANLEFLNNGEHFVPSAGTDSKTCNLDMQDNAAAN
Protocol: The human transporters OATP1B1, OATP1B3, OATP2B1, and OAT1‐OAT4 and a negative control protein (enhanced yellow fluorescent protein, eYFP) were transiently expressed in human embryonic kidney 293 (HEK293) cells by recombinant baculovirus‐mediated transduction. Baculoviruses carrying human genes for the transporters were prepared as reported previously. HEK293 cells were cultured in DMEM containing 10% fetal bovine serum at 37°C and 5% CO2 and passaged two to three times per week. For the transport studies, 0.05 × 10^6 cells for 48‐well plates (OATPs) or 0.06 × 10^6 cells for 24‐well plates (OATs) were seeded onto cell‐culture treated well plates coated with poly‐D‐lysine. After 1 day, cells were transduced to produce recombinant proteins by changing media to DMEM containing 30 μL (48‐well plates) or 60 μL (24‐well plates) of recombinant baculovirus and 3 mM (OATs) or 5 mM (OATPs) sodium butyrate in a total media volume of 500 μL. The cells were cultured for a further 2 days before the transport assays.
For the transport studies, media were removed and cells were washed once with warm transport uptake buffer (TP‐buffer—pH 7.4 HBSS with 25 mM HEPES and 4 mM sodium bicarbonate). Each experiment included triplicate (OATP) or duplicate (OAT) samples for every test condition. The uptake was started by removing liquid from wells and applying warm TP‐buffer (200 μL for 24‐well plates or 125 μL for 48‐well plates) containing a test compound to cells. Transport assays were terminated after a pre‐specified incubation time (reported in figure legends) by removing substrate solution and washing cells three times with cold TP‐buffer (300 μL for 48‐well plates and 400 μL for 24‐well plates). For the liquid chromatography mass spectrometry (LC–MS) analysis, compounds were extracted from cells with 125 μL (48‐well plates) or 250 μL (24‐well plates) of an ultrapure‐water solution containing 75% methanol and 0.1% formic acid, shaking at 250 RPM for 30 min. […] Samples were transferred to well plates, centrifuged at 3000 g for 30 min, and transferred to a new well plate for the analysis.
Equation (2) (the Michaelis–Menten equation) was fit to the transport kinetic assay data. […] (2) Uptake=Vmax×S/Km+S

BCRP = target: T2, BCRP (Homo sapiens, UniProt Q9UNQ0); experiment: Efflux transport assay in BCRP HEK293 membrane vesicles; assay type: biochemical; conditions: 5 and 50 µM
T2 construct: made in house; host or cells: membrane vesicles from HEK293 cells expressing the transporter
T2 sequence (Q9UNQ0 1-655): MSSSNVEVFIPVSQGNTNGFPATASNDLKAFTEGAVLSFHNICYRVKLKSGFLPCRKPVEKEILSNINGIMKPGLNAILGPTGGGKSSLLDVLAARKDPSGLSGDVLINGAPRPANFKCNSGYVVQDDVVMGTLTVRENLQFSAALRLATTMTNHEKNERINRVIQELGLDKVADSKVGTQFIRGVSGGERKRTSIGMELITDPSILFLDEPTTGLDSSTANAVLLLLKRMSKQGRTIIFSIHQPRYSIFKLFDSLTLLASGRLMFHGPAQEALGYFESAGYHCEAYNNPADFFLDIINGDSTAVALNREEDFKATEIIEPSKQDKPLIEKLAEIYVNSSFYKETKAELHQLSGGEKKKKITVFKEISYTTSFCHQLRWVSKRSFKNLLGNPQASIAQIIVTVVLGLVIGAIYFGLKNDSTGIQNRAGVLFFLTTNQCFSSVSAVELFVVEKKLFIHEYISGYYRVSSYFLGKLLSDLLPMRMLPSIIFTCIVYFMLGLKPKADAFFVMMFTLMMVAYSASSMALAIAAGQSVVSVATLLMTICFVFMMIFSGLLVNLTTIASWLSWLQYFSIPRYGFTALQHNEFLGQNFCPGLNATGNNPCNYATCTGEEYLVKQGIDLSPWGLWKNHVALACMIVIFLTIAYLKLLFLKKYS
Protocol: Membrane vesicles, 5 μL (7.5 μg of total protein), prepared as previously reported, were aliquoted to wells of a conical‐shaped 96‐well plate. The plate was incubated for 10 min at +37°C before the initiation of transport by adding 25 μL of TS‐buffer (10 mM Tris, 250 mM sucrose, pH adjusted to 7.4 with HEPES) containing magnesium chloride (10 mM final in the reaction), adenosine triphosphate (ATP) or adenosine monophosphate (AMP), 4 mM final in the reaction, and the transporter substrate and inhibitor. Each experiment included triplicate samples for both ATP and AMP samples. The concentrations of rosuvastatin and N‐methyl‐quinidine were 1 μM in the BCRP and P‐gp vesicle inhibition assays, respectively. […] The transport reactions were quenched by adding 200 μL of cold TS‐buffer to each well and transferring the samples to a 96‐multiwell 1.0 μm glass fiber filter plate (Merck Millipore, Darmstadt, Germany) kept under vacuum. Wells were further washed four times with cold TS‐buffer, after which the plate was dried under vacuum. The compounds were eluted from the plate by applying 100 μL of 75% methanol containing 0.1% formic acid to each well and incubating at 250 RPM for 30 min before centrifuging the samples to an analysis plate at 2800 g for 2 min. For the rosuvastatin samples, the elution solvent contained rosuvastin‐d6 as the internal standard. […]

Row | SMILES | transport by OATP1B3 (OATP1B3) | Km at 2 min (OATP1B3) | Km (OATP1B3) | Vmax (pmol/106 cells/min) OATP1B3 (OATP1B3) | transport by BCRP (BCRP)
1 | Cc1onc(-c2c(F)cccc2Cl)c1C(=O)N[C@@H]1C(=O)N2[C@@H]1SC(C)(C)[C@@H]2C(=O)O [Flucloxacillin] | transported | 18.3 µM | 10 to 18 µM | 6.02 pmol/106 cells/min | did not transport
2 | Cc1onc(-c2c(Cl)cccc2Cl)c1C(=O)N[C@@H]1C(=O)N2[C@@H]1SC(C)(C)[C@@H]2C(=O)O [Dicloxacillin] | transported | 2.81 µM | 3 µM | 2.69 pmol/106 cells/min | did not transport
